Values quoted from earlier work as cited in paper PMC9599640.

Set-up: method as in PMID 27217383
Conditions: phase I trial of abemaciclib

## CCN1CCN(Cc2ccc(Nc3ncc(F)c(-c4cc(F)c5nc(C)n(C(C)C)c5c4)n3)nc2)CC1 [abemaciclib]
  MTD: 200 mg BID
